{
  "source": "patent US20220257802A1",
  "about": "“COMPRESSED SOLID COMPOSITION FOR MRI” (Ascelia Pharma AB, priority 2019, published 2022)",
  "origin": "cited, not measured here",
  "conditions": "after oral intake",
  "data": [
    {"smiles": "[Mn+2]", "note": "[manganese]", "values": [
      {"measurement": "first-pass effect in the liver", "value": "up to 98%"}
    ]}
  ]
}
